Assay results taken from ChEMBL document CHEMBL1201862, “PubChem BioAssay data set” (2004).
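Test compounds were applied to cells in 96-well plates for 48 hours at 5 doses. GI50 marks 50% less growth.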 Active and inactive are the calls of the source. Cut-off read from the data, not from the text of the source: active = GI50 up to about 1.1 µM and inactive = higher.

What was measured:
Experiment in all cases: growth of human tumour cells (NCI), 48 h
786-0 = test system: 786-0
BT-549 = test system: BT-549
CAKI-1 = test system: CAKI-1
DU-145 = test system: DU-145
EKVX = test system: EKVX
HCC 2998 = test system: HCC 2998
Hs-578T = test system: Hs-578T
M14 = test system: M14
MCF7 = test system: MCF7
MDA-MB-231 = test system: MDA-MB-231
MDA-MB-435 = test system: MDA-MB-435
MDA-N = test system: MDA-N
NCI/ADR-RES = test system: NCI/ADR-RES
PC-3 = test system: PC-3
RPMI-8226 = test system: RPMI-8226
RXF 393 = test system: RXF 393
SK-OV-3 = test system: SK-OV-3
SNB-75 = test system: SNB-75
T47D = test system: T47D
DLD-1 = test system: DLD-1

Row | SMILES | GI50 (786-0) | GI50 (BT-549) | GI50 (CAKI-1) | GI50 (DU-145) | GI50 (EKVX) | GI50 (HCC 2998) | GI50 (Hs-578T) | GI50 (M14) | GI50 (MCF7) | GI50 (MDA-MB-231) | GI50 (MDA-MB-435) | GI50 (MDA-N) | GI50 (NCI/ADR-RES) | GI50 (PC-3) | GI50 (RPMI-8226) | GI50 (RXF 393) | GI50 (SK-OV-3) | GI50 (SNB-75) | GI50 (T47D) | GI50 (DLD-1)
1 | C/C(=N\NC(=O)c1ccncc1)c1ccc2ccccc2c1O | 0.548 µM (active) | 10.8 µM (inactive) | 2.25 µM (inactive) | 2.25 µM (inactive) | 0.832 µM (active) | 2.9 µM (inactive) | 16.8 µM (inactive) | 2.08 µM (inactive) | 1.35 µM (inactive) | 5.08 µM (inactive) | 8.99 µM (inactive) | 4.41 µM (inactive) | 1.87 µM (inactive) | 5.6 µM (inactive) | 4.33 µM (inactive) | 3.08 µM (inactive) | 4.47 µM (inactive) | 3.66 µM (inactive) | 1.01 µM (active) | –
2 | COc1ccc(/C(Cl)=C(\C=O)c2ccc(Cl)c(Cl)c2)cc1 | – | – | 9.12 µM (inactive) | – | 17.1 µM (inactive) | – | – | 13.7 µM (inactive) | – | – | – | – | – | – | 2.56 µM (inactive) | – | 30.6 µM (inactive) | 3.04 µM (inactive) | – | 10.7 µM (inactive)
3 | CC(=O)NC1CC2Oc3ccc(C)cc3C(C)(O2)C1O (stereo not drawn) | > 100 µM (inactive) | – | – | – | > 100 µM (inactive) | – | – | > 100 µM (inactive) | – | – | – | – | – | – | > 100 µM (inactive) | > 100 µM (inactive) | > 100 µM (inactive) | > 100 µM (inactive) | – | > 100 µM (inactive)
4 | N=C1/C(=C/c2ccc(F)cc2)C(=O)N=C2SC=NN12 | > 100 µM (inactive) | 94.6 µM (inactive) | > 100 µM (inactive) | > 100 µM (inactive) | > 100 µM (inactive) | > 100 µM (inactive) | > 100 µM (inactive) | > 100 µM (inactive) | > 100 µM (inactive) | > 100 µM (inactive) | 83.4 µM (inactive) | 83.2 µM (inactive) | > 100 µM (inactive) | > 100 µM (inactive) | > 100 µM (inactive) | 31.5 µM (inactive) | > 100 µM (inactive) | 92.3 µM (inactive) | > 100 µM (inactive) | –
5 | Cc1ccc(C(=O)N/N=C2/C(=O)c3c4ccccc4cc4cccc2c34)cc1 | 14.2 µM (inactive) | > 100 µM (inactive) | 25.4 µM (inactive) | 3.44 µM (inactive) | 40.2 µM (inactive) | 38.8 µM (inactive) | 19.1 µM (inactive) | 31.4 µM (inactive) | 2.3 µM (inactive) | 37 µM (inactive) | 23.9 µM (inactive) | 37.8 µM (inactive) | 30.1 µM (inactive) | 25.3 µM (inactive) | 22 µM (inactive) | 12.6 µM (inactive) | 23.7 µM (inactive) | 26.7 µM (inactive) | 13.4 µM (inactive) | –
6 | CC(=O)O/C=C(/C=C/OC(C)=O)C(C/C=C(\C)C#CC=C(C)C)OC(C)=O (stereo not drawn) | 36.6 µM (inactive) | – | > 100 µM (inactive) | – | 93.5 µM (inactive) | > 100 µM (inactive) | – | 34.1 µM (inactive) | – | – | – | – | – | – | 25.8 µM (inactive) | – | > 100 µM (inactive) | – | – | 45.8 µM (inactive)
7 | O=C(NCCCOC(=O)CCCCCCCCC(=O)OCCCNC(=O)NC(=O)c1c[nH]c(=O)[nH]c1=O)NC(=O)c1c[nH]c(=O)[nH]c1=O | > 100 µM (inactive) | – | > 100 µM (inactive) | – | > 100 µM (inactive) | > 100 µM (inactive) | – | > 100 µM (inactive) | – | – | – | – | – | – | > 100 µM (inactive) | – | > 100 µM (inactive) | – | – | > 100 µM (inactive)
8 | CC(C)OP(=O)(OC(C)C)c1nc(-c2ccccc2)n(-c2ccc([N+](=O)[O-])cc2)n1 | – | – | > 100 µM (inactive) | – | > 100 µM (inactive) | > 100 µM (inactive) | – | > 100 µM (inactive) | – | – | – | – | – | – | > 100 µM (inactive) | 0.0111 µM (active) | > 100 µM (inactive) | > 100 µM (inactive) | – | > 100 µM (inactive)
9 | CCN1CCC(O)(c2ccc(Oc3ccc(C)cc3)cc2)C(C(=O)c2ccc(Oc3ccc(C)cc3)cc2)C1 (stereo not drawn) | 4.99 µM (inactive) | 10.6 µM (inactive) | 12.9 µM (inactive) | 7.28 µM (inactive) | 15.6 µM (inactive) | 7.91 µM (inactive) | 17.8 µM (inactive) | 7.43 µM (inactive) | 2.42 µM (inactive) | 6.18 µM (inactive) | 11.6 µM (inactive) | 10.7 µM (inactive) | 13.8 µM (inactive) | 10.9 µM (inactive) | 1.48 µM (inactive) | 2.81 µM (inactive) | 16.1 µM (inactive) | 7.16 µM (inactive) | 12.8 µM (inactive) | –
10 | COc1ccc(-c2c(-c3ccccc3)c(C)nc3[nH]c(=S)[nH]c(=S)c23)cc1OC | 35.6 µM (inactive) | 42.2 µM (inactive) | 47 µM (inactive) | 44.4 µM (inactive) | 54.8 µM (inactive) | 37.6 µM (inactive) | 35.6 µM (inactive) | 36.1 µM (inactive) | 33.8 µM (inactive) | 26.9 µM (inactive) | 26.9 µM (inactive) | 30.1 µM (inactive) | 40.4 µM (inactive) | 25.1 µM (inactive) | 21.6 µM (inactive) | 35.8 µM (inactive) | 37 µM (inactive) | 42 µM (inactive) | 38.3 µM (inactive) | –
11 | O=S(OC12CC3CC(CC(C3)C1)C2)c1cc(Cl)cc(Cl)c1OCc1ccccc1 (stereo not drawn) | – | – | – | – | > 100 µM (inactive) | > 100 µM (inactive) | – | > 100 µM (inactive) | – | – | – | – | – | – | – | > 100 µM (inactive) | > 100 µM (inactive) | > 100 µM (inactive) | – | > 100 µM (inactive)
12 | CCOC(=O)C(=C=C=C(c1ccccc1)c1ccccc1)C(=O)OCC | 17.8 µM (inactive) | – | – | – | 26.7 µM (inactive) | 25 µM (inactive) | – | 20.6 µM (inactive) | – | – | – | – | – | – | 14.1 µM (inactive) | 10.7 µM (inactive) | 23.2 µM (inactive) | 3.87 µM (inactive) | – | 18.5 µM (inactive)
13 | Cc1nn(C(=O)c2ccccc2O)c2c1C(c1ccccc1O)SC(=N)N2 (stereo not drawn) | 4.53 µM (inactive) | > 10 µM (inactive) | 8.07 µM (inactive) | 8.85 µM (inactive) | 9.27 µM (inactive) | > 10 µM (inactive) | > 10 µM (inactive) | 4.54 µM (inactive) | 2.75 µM (inactive) | 0.649 µM (active) | 3.08 µM (inactive) | > 10 µM (inactive) | 4.09 µM (inactive) | 7.71 µM (inactive) | 3.34 µM (inactive) | > 10 µM (inactive) | 5.02 µM (inactive) | 4.06 µM (inactive) | 5.78 µM (inactive) | –
14 | O=C1CC2C(=O)N(Cc3ccccc3)C1C(S(=O)(=O)c1ccccc1)C2S(=O)(=O)c1ccccc1 (stereo not drawn) | 2.93 µM (inactive) | – | 0.604 µM (active) | – | – | 8.02 µM (inactive) | – | 1.92 µM (inactive) | – | – | – | – | – | – | 3.08 µM (inactive) | 1.83 µM (inactive) | 17.6 µM (inactive) | 7.28 µM (inactive) | – | 1.59 µM (inactive)
15 | COc1ccc2c(c1)CCCN2CCCCCCCCCCN(CCC(C)C)CCC(C)C | 14.2 µM (inactive) | – | 14.7 µM (inactive) | – | 6.44 µM (inactive) | 6.98 µM (inactive) | – | 13.3 µM (inactive) | – | – | – | – | – | – | 2.26 µM (inactive) | – | 19.3 µM (inactive) | – | – | 10.5 µM (inactive)
16 | C/C(=N/NC(=O)CC(=O)N(C(=O)c1ccccc1Cl)c1ccc(C)cc1)c1cc2ccccc2oc1=O | > 100 µM (inactive) | – | > 100 µM (inactive) | – | > 100 µM (inactive) | > 100 µM (inactive) | – | 65.3 µM (inactive) | – | – | – | – | – | – | – | > 100 µM (inactive) | – | 31 µM (inactive) | – | > 100 µM (inactive)
17 | FC(F)(F)c1ccc2c(c1)N(CCCNCCN1CCOCC1)c1ccccc1S2 | – | – | – | – | 15 µM (inactive) | 2.23 µM (inactive) | – | 1.95 µM (inactive) | – | – | – | – | – | – | 7.19 µM (inactive) | 2.62 µM (inactive) | > 10 µM (inactive) | 7.13 µM (inactive) | – | 16.2 µM (inactive)
18 | CCOC(=O)C1Nc2ccc([N+](=O)[O-])cc2[C@H]2OCC[C@@H]12 (stereo partly drawn) | > 100 µM (inactive) | – | > 100 µM (inactive) | – | > 100 µM (inactive) | > 100 µM (inactive) | – | > 100 µM (inactive) | – | – | – | – | – | – | – | > 100 µM (inactive) | > 100 µM (inactive) | > 100 µM (inactive) | – | > 100 µM (inactive)
19 | CC(=O)O[C@H]1C=CC(=O)C(C)CC1C (stereo partly drawn) | – | – | > 100 µM (inactive) | – | > 100 µM (inactive) | > 100 µM (inactive) | – | > 100 µM (inactive) | – | – | – | – | – | – | – | 42.6 µM (inactive) | > 100 µM (inactive) | > 100 µM (inactive) | – | 64 µM (inactive)
20 | O=C1/C(=c2\c3ccccc3n3c(=O)c4ccccc4nc23)Nc2ccccc21 [CANDIDINE] | 58.7 µM (inactive) | > 100 µM (inactive) | > 100 µM (inactive) | > 100 µM (inactive) | > 88.9 µM (inactive) | > 82.4 µM (inactive) | 29.9 µM (inactive) | > 38.7 µM (inactive) | > 70.1 µM (inactive) | > 70.3 µM (inactive) | 18.5 µM (inactive) | 18.6 µM (inactive) | > 100 µM (inactive) | > 100 µM (inactive) | > 100 µM (inactive) | > 100 µM (inactive) | > 100 µM (inactive) | 25.6 µM (inactive) | > 26.7 µM (inactive) | –
21 | C/C1=C\C=C(\C(C)C)CC/C(C(=O)O)=C\CC/C(C)=C/CC1 [NEOCROTOCEMBRANEIC ACID] | 24.6 µM (inactive) | 27.5 µM (inactive) | 31.7 µM (inactive) | 33.1 µM (inactive) | 27.1 µM (inactive) | 18.7 µM (inactive) | 43.6 µM (inactive) | 29 µM (inactive) | 16.9 µM (inactive) | 20.7 µM (inactive) | 23.6 µM (inactive) | 28.8 µM (inactive) | 30.5 µM (inactive) | 18 µM (inactive) | 19.3 µM (inactive) | 20.7 µM (inactive) | 27.6 µM (inactive) | 33.7 µM (inactive) | 34.4 µM (inactive) | –
